# Reference: paper PMC10366214, “The anti-Alzheimer potential of novel spiroindolin-1,2-diazepine derivatives as targeted cholinesterase inhibitors with modified substituents” (Scientific Reports, 2023)
# Where two headings read alike, the source gives them in different places.
# How the values were obtained:
# AChE [1] = target: T1, AChE (Homo sapiens, UniProt P22303); assay: biochemical; settings: for inhibition at 50 µM: read-out: AChE % inhibition at 50 µM
# Procedure: (§1) Cholinesterase inhibitory activities of all analogs were evaluated spectrometrically using the modified Ellman method as previously reported[40],[41]. […] The absorbance of each well was measured at 415 nm using a microplate reader. IC50 values and inhibition values were calculated with the software GraphPad Prism as the mean of three independent experiments and are expressed as mean ± SEM.
# BChE [2] = target: T2, BChE (Homo sapiens, UniProt P06276); assay: BChE inhibition, modified Ellman method; type: biochemical; settings: for inhibition at 50 µM: read-out: BChE % inhibition at 50 µM
# T2 sequence (P06276 29-602): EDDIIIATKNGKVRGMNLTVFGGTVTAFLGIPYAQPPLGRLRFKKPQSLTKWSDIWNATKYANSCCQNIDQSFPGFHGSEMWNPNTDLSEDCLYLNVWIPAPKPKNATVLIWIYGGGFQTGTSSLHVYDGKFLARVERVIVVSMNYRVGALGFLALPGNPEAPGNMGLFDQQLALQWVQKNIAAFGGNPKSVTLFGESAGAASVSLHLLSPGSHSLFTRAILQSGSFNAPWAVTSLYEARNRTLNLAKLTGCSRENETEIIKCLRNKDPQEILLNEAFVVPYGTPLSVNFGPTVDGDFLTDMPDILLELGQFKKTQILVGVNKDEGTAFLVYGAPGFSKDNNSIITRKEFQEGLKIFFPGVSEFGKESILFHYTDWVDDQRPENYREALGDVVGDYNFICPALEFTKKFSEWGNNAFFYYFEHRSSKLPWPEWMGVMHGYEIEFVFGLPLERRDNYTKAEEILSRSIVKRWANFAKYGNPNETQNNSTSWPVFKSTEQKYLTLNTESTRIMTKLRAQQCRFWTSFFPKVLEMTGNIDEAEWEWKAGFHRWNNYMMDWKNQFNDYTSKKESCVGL
# Procedure: as §1
# BChE [3] = target: T2, BChE; settings: cited from earlier work
# AChE [4] = target: T1, AChE; settings: cited from earlier work
# [5] = 50 µM, mean ± S.E of three to five independent experiments
# [6] = mean ± S.E of three to five independent experiments, read-out: BChE IC50
# [7] = mean ± S.E of three to five independent experiments, read-out: AChE IC50
# T1 sequence (P22303 32-614): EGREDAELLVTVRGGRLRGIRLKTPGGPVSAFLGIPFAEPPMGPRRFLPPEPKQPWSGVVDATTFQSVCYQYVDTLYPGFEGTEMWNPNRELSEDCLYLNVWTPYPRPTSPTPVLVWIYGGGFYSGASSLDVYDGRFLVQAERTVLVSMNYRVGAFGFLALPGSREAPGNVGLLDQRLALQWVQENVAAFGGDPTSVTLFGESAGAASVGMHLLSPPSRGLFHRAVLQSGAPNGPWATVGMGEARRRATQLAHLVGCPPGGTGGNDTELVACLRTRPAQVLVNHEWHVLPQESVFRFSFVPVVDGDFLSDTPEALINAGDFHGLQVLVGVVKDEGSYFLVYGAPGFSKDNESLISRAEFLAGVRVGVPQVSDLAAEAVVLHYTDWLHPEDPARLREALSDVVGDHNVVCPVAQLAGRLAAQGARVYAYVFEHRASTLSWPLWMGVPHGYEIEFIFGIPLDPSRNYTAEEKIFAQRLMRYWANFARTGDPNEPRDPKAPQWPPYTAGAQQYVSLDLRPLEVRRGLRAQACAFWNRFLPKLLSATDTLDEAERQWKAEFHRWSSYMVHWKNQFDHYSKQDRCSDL
smiles,measurement,setting,value
"Cc1ccc(NC2=C([N+](=O)[O-])C3(C(=O)Nc4ccc([N+](=O)[O-])cc43)C(C#N)=C(N)NN2)cc1 (stereo not shown) [Compound 5g, 3-amino-5',6-dinitro-2'-oxo-7-(p-tolylamino)-1,2-dihydrospiro[[1,2]diazepine-5,3'-indoline]-4-carbonitrile]",IC50,AChE [1],5.88 ± 0.84 µM
same,inhibition at 50 µM,AChE [1],66.3 ± 6.57%
same,inhibition at 50 µM,BChE [2],24.4 ± 2.96%
"COc1ccc(OC)c(NC2=C([N+](=O)[O-])C3(C(=O)Nc4ccc(Cl)cc43)C(C#N)=C(N)NN2)c1 (stereo not shown) [Compound 5d, 3-amino-5'-chloro-7-((2,5-dimethoxyphenyl)amino)-6-nitro-2'-oxo-1,2-dihydrospiro[[1,2]diazepine-5,3'-indoline]-4-carbonitrile]",inhibition at 50 µM,AChE [1]; [5],27.8 ± 5.26%
same,inhibition at 50 µM,BChE [2]; [5],19.2 ± 4.07%
"Cc1ccccc1NC1=C([N+](=O)[O-])C2(C(=O)Nc3c(Cl)cc(Cl)cc32)C(C#N)=C(N)NN1 (stereo not shown) [Compound 5m, 3-amino-5',7'-dichloro-6-nitro-2'-oxo-7-(o-tolylamino)-1,2-dihydrospiro[[1,2]diazepine-5,3'-indoline]-4-carbonitrile]",inhibition at 50 µM,AChE [1]; [5],24.8 ± 5.48%
same,inhibition at 50 µM,BChE [2]; [5],41.9 ± 6.47%
"COc1ccc(NC2=C([N+](=O)[O-])C3(C(=O)Nc4ccc([N+](=O)[O-])cc43)C(C#N)=C(N)NN2)cc1 (stereo not shown) [Compound 5i, 3-amino-7-((4-methoxyphenyl)amino)-5',6-dinitro-2'-oxo-1,2-dihydrospiro[[1,2]diazepine-5,3'-indoline]-4-carbonitrile]",inhibition at 50 µM,AChE [1],46.1 ± 3.38%
same,inhibition at 50 µM,BChE [2],31.2 ± 3.65%
"Cc1ccccc1NC1=C([N+](=O)[O-])C2(C(=O)Nc3c(C(F)(F)F)cccc32)C(C#N)=C(N)NN1 (stereo not shown) [Compound 5t, 3-amino-6-nitro-2'-oxo-7-(o-tolylamino)-7'-(trifluoromethyl)-1,2-dihydrospiro[[1,2]diazepine-5,3'-indoline]-4-carbonitrile]",inhibition at 50 µM,AChE [1]; [5],24.7 ± 1.94%
same,inhibition at 50 µM,BChE [2]; [5],7.31 ± 5.07%
"COc1ccc(NC2=C([N+](=O)[O-])C3(C(=O)Nc4ccc(Cl)cc43)C(C#N)=C(N)NN2)cc1 (stereo not shown) [Compound 5b, 3-amino-5'-chloro-7-((4-methoxyphenyl)amino)-6-nitro-2'-oxo-1,2-dihydrospiro[[1,2]diazepine-5,3'-indoline]-4-carbonitrile]",inhibition at 50 µM,AChE [1]; [5],42.8 ± 2.15%
same,inhibition at 50 µM,BChE [2]; [5],36.8 ± 2.1%
"Cc1ccc(NC2=C([N+](=O)[O-])C3(C(=O)Nc4ccc(Cl)cc43)C(C#N)=C(N)NN2)cc1 (stereo not shown) [Compound 5a, 3-amino-5'-chloro-6-nitro-2'-oxo-7-(p-tolylamino)-1,2-dihydrospiro[[1,2]diazepine-5,3'-indoline]-4-carbonitrile]",inhibition at 50 µM,AChE [1]; [5],5.37 ± 3.11%
same,inhibition at 50 µM,BChE [2]; [5],18.1 ± 2.88%
"N#CC1=C(N)NNC(Nc2cccc(O)c2)=C([N+](=O)[O-])C12C(=O)Nc1c(C(F)(F)F)cccc12 (stereo not shown) [Compound 5u, 3-amino-7-((3-hydroxyphenyl)amino)-6-nitro-2'-oxo-7'-(trifluoromethyl)-1,2-dihydrospiro[[1,2]diazepine-5,3'-indoline]-4-carbonitrile]",inhibition at 50 µM,AChE [1]; [5],16.4 ± 0.53%
same,inhibition at 50 µM,BChE [2]; [5],10.4 ± 1.07%
O=C1Nc2ccccc2/C1=C\c1cc[n+](Cc2ccccc2Cl)cc1 [compound B],IC50,BChE [3],1.37 µM
same,IC50,AChE [4],0.00044 µM
same,fold more potent than donepezil (AChE),AChE [4]; versus donepezil as reference drug,32 fold
"N#CC1=C(N)NNC(Nc2ccc(Cl)cc2)=C([N+](=O)[O-])C12C(=O)Nc1ccc(Cl)cc12 (stereo not shown) [Compound 5e, 3-amino-5'-chloro-7-((4-chlorophenyl)amino)-6-nitro-2'-oxo-1,2-dihydrospiro[[1,2]diazepine-5,3'-indoline]-4-carbonitrile]",inhibition at 50 µM,AChE [1]; [5],13.4 ± 3.34%
same,BChE % inhibition at 50 µM,BChE [2]; [5],Not active
"N#CC1=C(N)NNC(Nc2ccc(O)cc2)=C([N+](=O)[O-])C12C(=O)Nc1c(Br)cc(Br)cc12 (stereo not shown) [Compound 5r, 3-amino-5',7'-dibromo-7-((4-hydroxyphenyl)amino)-6-nitro-2'-oxo-1,2-dihydrospiro[[1,2]diazepine-5,3'-indoline]-4-carbonitrile]",inhibition at 50 µM,AChE [1]; [5],46.7 ± 1.92%
same,inhibition at 50 µM,BChE [2]; [5],51.7 ± 1.29%
same,IC50,BChE [2]; [6],45.7 ± 5.62 µM
"COc1ccc(OC)c(NC2=C([N+](=O)[O-])C3(C(=O)Nc4ccc([N+](=O)[O-])cc43)C(C#N)=C(N)NN2)c1 (stereo not shown) [Compound 5j, 3-amino-7-((2,5-dimethoxyphenyl)amino)-5',6-dinitro-2'-oxo-1,2-dihydrospiro[[1,2]diazepine-5,3'-indoline]-4-carbonitrile]",IC50,AChE [1],20.9 ± 2.96 µM
same,inhibition at 50 µM,AChE [1],61.7 ± 3.77%
same,IC50,BChE [2],17.4 ± 3.29 µM
same,inhibition at 50 µM,BChE [2],58.4 ± 3.55%
"Cc1ccc(NC2=C([N+](=O)[O-])C3(C(=O)Nc4ccc([N+](=O)[O-])cc43)C(C#N)=C(N)NN2)cc1C (stereo not shown) [Compound 5h, 3-amino-7-((3,4-dimethylphenyl)amino)-5',6-dinitro-2'-oxo-1,2-dihydrospiro[[1,2]diazepine-5,3'-indoline]-4-carbonitrile]",inhibition at 50 µM,AChE [1],48.6 ± 2.7%
same,BChE % inhibition at 50 µM,BChE [2]; [5],Not active
"N#CC1=C(N)NNC(Nc2cccc(O)c2)=C([N+](=O)[O-])C12C(=O)Nc1c(Br)cc(Br)cc12 (stereo not shown) [Compound 5q, 3-amino-5',7'-dibromo-7-((3-hydroxyphenyl)amino)-6-nitro-2'-oxo-1,2-dihydrospiro[[1,2]diazepine-5,3'-indoline]-4-carbonitrile]",inhibition at 50 µM,AChE [1]; [5],63.1 ± 4.43%
same,IC50,AChE [1]; [7],12 ± 2.33 µM
same,inhibition at 50 µM,BChE [2]; [5],37.1 ± 0.84%
"COc1ccc(OC)c(NC2=C([N+](=O)[O-])C3(C(=O)Nc4c(Br)cc(Br)cc43)C(C#N)=C(N)NN2)c1 (stereo not shown) [Compound 5p, 3-amino-5',7'-dibromo-7-((2,5-dimethoxyphenyl)amino)-6-nitro-2'-oxo-1,2-dihydrospiro[[1,2]diazepine-5,3'-indoline]-4-carbonitrile]",inhibition at 50 µM,AChE [1]; [5],73.4 ± 4.21%
same,IC50,AChE [1]; [7],11.3 ± 1.65 µM
same,inhibition at 50 µM,BChE [2]; [5],59.3 ± 3.15%
same,IC50,BChE [2]; [6],37.9 ± 4.85 µM
"N#CC1=C(N)NNC(Nc2ccc(O)cc2)=C([N+](=O)[O-])C12C(=O)Nc1c(C(F)(F)F)cccc12 (stereo not shown) [Compound 5v, 3-amino-7-((4-hydroxyphenyl)amino)-6-nitro-2'-oxo-7'-(trifluoromethyl)-1,2-dihydrospiro[[1,2]diazepine-5,3'-indoline]-4-carbonitrile]",inhibition at 50 µM,AChE [1]; [5],17.7 ± 1.82%
same,inhibition at 50 µM,BChE [2]; [5],13 ± 1.14%
"COc1ccc(NC2=C([N+](=O)[O-])C3(C(=O)Nc4c(Cl)cc(Cl)cc43)C(C#N)=C(N)NN2)cc1 (stereo not shown) [Compound 5n, 3-amino-5',7'-dichloro-7-((4-methoxyphenyl)amino)-6-nitro-2'-oxo-1,2-dihydrospiro[[1,2]diazepine-5,3'-indoline]-4-carbonitrile]",inhibition at 50 µM,AChE [1]; [5],35.4 ± 7.54%
same,inhibition at 50 µM,BChE [2]; [5],46.5 ± 4.77%
"Cc1ccc(NC2=C([N+](=O)[O-])C3(C(=O)Nc4c(Br)cc(Br)cc43)C(C#N)=C(N)NN2)cc1 (stereo not shown) [Compound 5o, 3-amino-5',7'-dibromo-6-nitro-2'-oxo-7-(p-tolylamino)-1,2-dihydrospiro[[1,2]diazepine-5,3'-indoline]-4-carbonitrile]",inhibition at 50 µM,AChE [1]; [5],37.6 ± 4.74%
same,inhibition at 50 µM,BChE [2]; [5],14.1 ± 3.7%
"Cc1ccc(NC2=C([N+](=O)[O-])C3(C(=O)Nc4ccc(Cl)cc43)C(C#N)=C(N)NN2)cc1C (stereo not shown) [Compound 5c, 3-amino-5'-chloro-7-((3,4-dimethylphenyl)amino)-6-nitro-2'-oxo-1,2-dihydrospiro[[1,2]diazepine-5,3'-indoline]-4-carbonitrile]",AChE % inhibition at 50 µM,AChE [1]; [5],Not active
same,inhibition at 50 µM,BChE [2]; [5],37 ± 3.78%
"Cc1ccccc1NC1=C([N+](=O)[O-])C2(C(=O)Nc3ccc([N+](=O)[O-])cc32)C(C#N)=C(N)NN1 (stereo not shown) [Compound 5f, 3-amino-5',6-dinitro-2'-oxo-7-(o-tolylamino)-1,2-dihydrospiro[[1,2]diazepine-5,3'-indoline]-4-carbonitrile]",IC50,AChE [1],22.4 ± 2.11 µM
same,inhibition at 50 µM,AChE [1],59.6 ± 6.75%
same,inhibition at 50 µM,BChE [2],23.3 ± 3.97%
O=C(CC1(O)C(=O)N(Cc2ccccc2)c2ccccc21)c1ccc(Br)cc1Br (stereo not shown) [compound C],IC50,BChE [3],0.065 ± 0.008 µM
same,IC50,AChE [4],0.028 ± 0.003 µM
"COc1ccc(NC2=C([N+](=O)[O-])C3(C(=O)Nc4c(C(F)(F)F)cccc43)C(C#N)=C(N)NN2)cc1 (stereo not shown) [Compound 5s, 3-amino-7-((4-methoxyphenyl)amino)-6-nitro-2'-oxo-7'-(trifluoromethyl)-1,2-dihydrospiro[[1,2]diazepine-5,3'-indoline]-4-carbonitrile]",inhibition at 50 µM,AChE [1]; [5],56 ± 4.39%
same,IC50,AChE [1]; [7],17.8 ± 2.79 µM
same,inhibition at 50 µM,BChE [2]; [5],13.4 ± 3.46%
Cc1ccc(Cn2cc(COc3cccc(C4Nc5ccccc5NC5=C4C(=O)CC(C)(C)C5)c3)nn2)cc1 (stereo not shown) [compound E],IC50,BChE [3],0.2 ± 0.002 µM
same,AChE Inhibition % at 30 μM,AChE [4]; 30 μM,12.9%
"N#CC1=C(N)NNC(Nc2ccc(Cl)cc2)=C([N+](=O)[O-])C12C(=O)Nc1ccc([N+](=O)[O-])cc12 (stereo not shown) [Compound 5k, 3-amino-7-((4-chlorophenyl)amino)-5',6-dinitro-2'-oxo-1,2-dihydrospiro[[1,2]diazepine-5,3'-indoline]-4-carbonitrile]",inhibition at 50 µM,AChE [1],24.6 ± 1.7%
same,inhibition at 50 µM,BChE [2],17.9 ± 1.81%
